From patent US4156777A, “Process for producing glucopyranose-nitrosourea compounds and novel compounds included therein” (Tokyo Tanabe Company, Limited, priority 1977, dated 1979)

What was measured:
[1] = system: various kinds of bacteria; assay: Antibacterial activity (overall statement); format: cell-based; settings: Table VI
Excerpt: Using 6DCNU and 6MCαG, minimum inhibiting concentrations (referred to as "MIC") for various kinds of bacteria were estimated by means of the broth-dilution method.

[2] = Effect on respiration, blood pressure, heart rate and electrocardiogram; format: in vivo, Beagle dogs; settings: for NOAEL: dog, in vivo, iv, injected into brachial veins, anesthetized Beagle dogs, read-out: maximum dosage not effected on respiration, blood pressure, heart rate and electrocardiogram
Description: Beagle dogs of both sexes weighing about 10 kg were anesthetized with pentobarbital sodium (30 mg/kg, i.v.), and immobilized in the supine position. Test compounds dissolved in physiological saline solution were injected into the brachial veins of the animals and the arteries at cannulated positions were treated with heparin sodium as anticoagulant.
The respiration rate of each animal was estimated with a respirometer (Nihonkohden, RP-3) through a tracheal cannula, the blood pressure with an electro-haemodynamometer (Nihonkohden, MP-4T) attached surgically to the femoral artery, and the heart rate with a pulse-rate tachometer (Nihonkohden, RT-2) through the trigger pulse of the blood pressure.

[3] = known compounds, generally seen; cited from earlier work

| SMILES | antibacterial activity, in words [1] | maximum dosage without effect, comparison in words ([2]; Beagle dogs) | NOAEL [2] [mg/kg] | diabetogenic activity, decreasing order [3] |
| --- | --- | --- | --- | --- |
| O=NN(CCCl)C(=O)NC[C@H]1OC(O)[C@H](O)[C@@H](O)[C@@H]1O (stereo partly drawn) [Example 6DCNU, 3-(D-glucopyranos-6-yl)-1-(2-chloroethyl)-1-nitrosourea] | no substantial antibacterial activity | highest dosage value | 70 | – |
| CO[C@H]1O[C@H](CNC(=O)N(CCCl)N=O)[C@@H](O)[C@H](O)[C@H]1O [Example 6MCαG, 1-(2-chloroethyl)-3-(methyl α-D-glucopyranos-6-yl)-1-nitrosourea] | – | – | 50 | SZ>DCNU>GANU> 2MCαG≈6MCαG |
